Reference: patent US7563862B2, “Neural regeneration peptides and methods for their use in treatment of brain damage” (Neuren Pharmaceuticals Limited, priority 2001, dated 2009)
“Also recorded” adds a separate entry of the source. Where two headings read alike, the source gives them in different places. Ends that are not written are not given here. Peptide text beside a SMILES is read from it.

Key:
cerebellar microexplants [1] = experiment: cerebellar microexplant survival assay, 3-NP/glutamate injury; type: cell-based, rat; conditions: for concentration of maximal neuroprotective effect / neuroprotective activity compared to NRP-5 RG: NRP-5 RG analogues
Protocol: Toxicological and drug administration experiments were designed such that 1/100 parts of toxin and neuroprotective drug were administered simultaneously to the freshly prepared cerebellar microexplants derived from P-4 or P8 rats. Glutamate was prepared as a 50 mM stock solution in MilliQ water while 50 mM 3-nitropropionic acid was pH-adjusted (pH 6.8-7.2) in MilliQ water. The concentrations of the oxidative stress inducing toxin, 3-nitropropionic acid (3-NP), and the excitotoxin, glutamate, in the assay were 0.5 mM each. Lyophilized peptides were reconstituted in PBS or 100 μg/ml human transferrin as a 10 μM stock solution. Subsequently, serial dilutions were made. Cerebellar microexplants were cultivated for 48-72 hours at 34° C., 5% CO2 in air and 100% humidity before they were fixed by increasing amounts of paraformaldehyde (0.4%, 1.2%, 3% and 4%—each treatment 2-3 min).
For statistical analysis of survival, four fields (each field having an area of 0.65 mm^2) of each fixed cerebellar culture with the highest cell densities were chosen, and cells displaying neurite outgrowth were counted. Statistical significance was measured by Student's t-test.
(§1) Laminated cerebellar cortex was extracted from P3/4, P7/8 rat pups and triturated through gauze having a 125 μm pore size to obtain uniformly sized microexplants. After centrifugation for 3 minutes at 61 g and the pellet was resuspended in StartV medium (Biochrom) and the suspension seeded on poly-D-lysine coated coverslips in 6-well plates and incubated for 3 hrs to allow adherence, before 1 ml StartV per well was added. As described previously, glutamate/3-NP and NRP were also added. The explants are cultivated at 34° C. at 5% CO2 and 100% humidity for 48-72 hrs. BrdU was administered at start of cultivation for proliferation rate measurements and cells are counted per microscopic field after 48-72 hrs.
Cerebellar Microexplants were prepared as described in Example 9 with the addition of SDF-1 as described, in addition to glutamate/3-NP, and NRP.
Cerebellar microexplants were prepared as described in Example 9 with the addition of SDF-1, Wortmannin and PD98059 (both Calbiochem), as described, in addition to glutamate/3-NP, and NRP.

mouse neural stem cells = experiment: haptotactic migration assay, mouse neural stem cells; type: cell-based
Protocol: (§2) NRPs were tested for migration-inducing/chemoattractive activity on mouse neural stem cells, EGF-dependent immortalized mouse neural stem cell line MEB5 and wild-type PC-12 cells in a haptotactic migration assay as described below.
(§3) Initial NRP Coating. Control wells of Transwell plates (Coming) with 12 μm pore size were coated in 1.5 ml of the BSA/PBS vehicle. Remaining plates were coated using various concentrations of NRPs ranging between 1-100 ng/ml (prepared in PBS containing 10 ug/ml BSA). The plates were then incubated at 37° C. for 1 hr to coat. Wells were then rinsed 2× with 1 ml sterile PBS.
(§4) Laminin ([…]) for MEB-5 cells, PDL (50 μg/ml)+Matrigel for mouse primary stem cells and fibronectin (25 ug/ml)+matrigel for PC-12 cells were used as extracellular matrix (ECM) coating for the cells. All ECM compounds were diluted in PBS. 1.5 ml of the ECM per well was incubated for 2 hrs at room temperature. The wells were then rinsed once with Iml serum-free media (e.g. NB/B27) followed by 1 ml PBS wash.
A 5 ug/mL PDL/PLL mixture (in PBS) was used to coat inserts. Subsequently the inserts were rinsed with MilliQ water.
Transferring to Media and Cell Seeding: Appropriate medium (MEB-5 cells: DMEM-high glucose+N2 (growth medium supplement from Invitrogen)+10 ng/biotin+2 mM L-glutamine, primary stem cells: NSA-medium from Euroclone and for PC-12 cells: NB/B27 medium) was transferred into the 12-well plates. […] Plates were fixed at 1-2 days in vitro (DIV).
Fixation: Inserts were discarded and wells fixed in successive dilutions of PFA (0.4, 1.2, 3 and 4%) for 3-5min in each dilution. […] The wells were rinsed and stored in PBS until counting.
A haptotactic migration assay was performed according to the description of Example 10 using rat NRP-9SD (SEQ ID NO:34) (4 nM) and mouse NRP-7SW (SEQ ID NO:24) (0.4 nM) as attractants in a Boyden chamber

[2] = tested on: OTCs of rat embryonic forebrain; experiment: embryonic forebrain OTC migration assay (medial ganglionic eminence to cortical anlage); type: cell-based
Protocol: OTCs of rat embryonic forebrain were prepared as described. Briefly, pregnant rats at E17 gestation were sacrificed, the fetuses rapidly removed. Coronal slices of the forebrain were cut at 400 μm thickness and placed onto millicell PICM ORG50 membranes (Millipore) in 3 cm Petri dishes containing 1 ml of DMEMI/F12, 6.5 mg/ml glucose, 0.1 mM glutamine and 10% FCS for 34 hrs. Afterwards the medium was exchanged to 1 ml Neurobasal/B27, 6.5 mg/ml glucose, 0.1 mM glutamine, to which 10 μl PBS, NRP, or SDF-1 were added for the indicated concentrations and a small DiI (1,1′-dioctodecycyl-3,3,3′3-tetramethylindocarbocyanine) crystal of uniform size was placed in the medial ganglionic eminence (n=10-15) under a stereomicroscope. After 24 hrs cultivation the total number or migrated neurons dispersed in the ganglionic eminence and cortex were counted under an inverted fluorescent microscope.

wild-type PC-12 cells = experiment: haptotactic migration assay, PC-12 cells; type: cell-based; conditions: 50 ng/ml coating, 200,000 cells
Protocol: as §2, §3, §4
(§5) A 5 ug/mL PDL/PLL mixture (in PBS) was used to coat inserts. Subsequently the inserts were rinsed with MilliQ water. […]

MEB-5 cells = experiment: haptotactic migration assay, MEB-5 cells; type: cell-based, mouse; conditions: 10 ng/ml coating, 200,000 cells
Protocol: as §2, §3, §4, §5

cerebellar microexplants [3] = experiment: cerebellar microexplant proliferation assay under injury (BrdU-positive nuclei); type: cell-based, rat
Protocol: Using the toxins described above, cerebellar explants were exposed for 24 hours, at the beginning of culturing to dilutions of NRP and 0.1 μM BrdU. Subsequently, 80% of the medium was changed without addition of new toxins and NRPs. The cerebellar cultures were fixed as described above after 3 days in vitro. The detection of the incorporated BrdU level was performed as described previously. Under these conditions, over 99% of the cells in the cerebellar population were neurons. Therefore any increase in cell number after NRP administration was most likely due to neuronal cell proliferation.
For statistical analysis of proliferation four fields (each field having an area of 0.65 mm^2) of each fixed cerebellar culture displaying highest density of BrdU-positive nuclei were chosen, and BrdU-positive nuclei were counted. Statistical significance was measured by Student's t-test.
as §1

neural stem cells = experiment: neural stem cell differentiation assay, neuronal differentiation and axonal outgrowth; type: cell-based, mouse; conditions: together with BrdU for 24 hrs
Protocol: Neural stem cells were derived from E15 C3H mice forebrain and cultured as neurospheres in the presence of 20 ng/ml EGF and 10 ng/ml bFGF as described in Gritti et al. (2001). Briefly, timed pregnant mice were sacrificed and the embryos removed. Under sterile conditions the brains were removed and the forebrains dissected. The tissue was dissociated by trituration and pelleted by 75 g centrifugation for 10 minutes and the cells seeded in non-coated tissue culture flasks in NSA medium with growth factors. For passaging neurospheres were triturated and seeded as single cells.
Upon reaching a sufficient size, neurospheres were dissociated by trituration and plated at a density of 200,000 cells per well on laminin-coated 13 mm diameter coverslips that had been placed in Nunc 24 well plates. The plating medium was a 1:1 mixture of DMEM/F12 supplemented with N2 and Neurobasal supplemented with B27 and 2 mM glutamine. To enhance survival after plating the medium contained 2 ng/ml bFGF. After 24 h the medium was replaced with a neuronal differentiation-promoting medium (1:3 mixture of DMEM/F12 supplemented with N2 and Neurobasal supplemented with B27 and 2 mM glutamine) and except for the controls the test compound or IGF-1 was added simultaneously. The medium with fresh compound was exchanged every other day. Seven days after plating the differentiating cells were incubated for 20 minutes in differentiation medium containing 100 ng/ml Syto21 to label the nuclei of viable cells. Subsequently, they were fixed with 4% paraformaldehyde and immunostained with a mouse anti-βIII tubulin antibody and a goat anti-mouse Cy3-coupled secondary antibody.
After staining the coverslips were removed from the tissue culture plate and mounted on […], using Immunofluore fluorescent mounting medium. To analyse the percentage of neurons of total cells, with a Zeiss axiophot microscope, equipped with Axoivision software, at 20× magnification images of two random fields per well were taken in the red (tubulin stained neurons) and green (Syto21 stained nuclei) fluorescent channel. Neurons and nuclei per field were counted and the neuronal percentage of total cell number determined.

Molecule: SDF-1: chemokine stromal-derived factor, 63 amino acid long mature human SDF-1 [reference compound]
- neuroprotection compared to NRP (cerebellar microexplants [1]): narrow dose range of efficacy; also recorded: only a limited neuroprotective effect
- neuroprotection (cerebellar microexplants [1]; 10 nM, 0.5 mM 3-NP/glutamate 48 hrs): less than 30%
- number of cells attracted (mouse neural stem cells; 100 nM coating): attracted a similar number of cells, as did the 0.4 nM mouse NRP-7SW
- potency compared to NRP [2]: far less potent than NRP

Molecule: GTPGRAEAGGQVSPCLAASCSQAYG-NH2 (cysteine pairing not given here) [NRP-4 GG, 25-mer fragment of NRP-4]
- more E14 cells migrated compared with BSA-vehicle (mouse neural stem cells; 10 ng/ml coating, 200,000 cells): 93.7%
- more PC-12 cells migrated compared with BSA vehicle (wild-type PC-12 cells): 80.8%
- more MEB-5 cells migrated compared with BSA-vehicle (MEB-5 cells): 195%

Molecule: CC(C)C[C@H](NC(=O)[C@H](CS)NC(=O)[C@@H]1CCCN1C(=O)[C@H](Cc1c[nH]cn1)NC(=O)[C@H](CC(C)C)NC(=O)[C@H](CO)NC(=O)CNC(=O)[C@@H]1CCCN1C(=O)[C@H](C)NC(=O)[C@H](CCCNC(=N)N)NC(=O)[C@H](CCCNC(=N)N)NC(=O)[C@H](C)NC(=O)[C@H](CCC(=O)O)NC(=O)[C@@H]1CCCN1C(=O)[C@H](CC(=O)O)NC(=O)[C@@H](N)CCCCN)C(=O)N[C@@H](C)C(=O)N[C@@H](C)C(=O)N[C@@H](CO)C(=O)N[C@@H](CS)C(=O)N[C@@H](CO)C(=O)N[C@@H](C)C(=O)N[C@@H](C)C(=O)NCC(N)=O [NRP-2 segment KG] (H-KDPEARRAPGSLHPCLAASCSAAG-NH2)
- cytotoxicity (cerebellar microexplants [1]): no cytotoxicity

Molecule: COC[C@H]1OC(=O)c2coc3c2[C@@]1(C)C1=C(C3=O)[C@@H]2CCC(=O)[C@@]2(C)C[C@H]1OC(C)=O [wortmannin, reference compound]
- effect of inhibitor alone under vehicle and injury conditions (cerebellar microexplants [1]; without NRP): no significant effect after vehicle and injury conditions without the NRP

Molecule: AAARRDAPGRAGG-NH2 [SEQ ID NO:45, NRP-5 RG analogue]
- concentration of maximal neuroprotective effect (cerebellar microexplants [1]): about 1 pM
- neuroprotective activity compared to NRP-5 RG (cerebellar microexplants [1]): even higher neuroprotective activity than the original NRP-5 RG

Molecule: GTPGRAEAGGQ-NH2 [NRP-4 segment GQ, 11-mer of NRP-4]
- concentration range of maximal biological activity for survival (cerebellar microexplants [1]; NRP simultaneous with 3-NP/glutamate, 48 hrs): 10-100 nM
- survival rates after severe injury (cerebellar microexplants [1]; nanomolar concentrations): 50%
- concentrations with statistically significant effects (cerebellar microexplants [1]; simultaneous, 48 hrs, units in value): 10 pM, 100 pM, 10 nM and 100 nM
- up regulation in the proliferation rate compared to injured cerebellar microexplants (cerebellar microexplants [3]; 10 nM): 132.2%
- concentration at which proliferation induction was observed (cerebellar microexplants [3]; 3-NP/glutamate, NRP and BrdU 24 hrs, counted after 72 hrs): 10 nM

Molecule: REGRRDAPGRAAA-NH2 [SEQ ID NO:46, NRP-5 RG analogue, C-terminal GG-domain substituted]
- only concentration with statistically significant effect (cerebellar microexplants [1]): 100 nM
- neuroprotective activity compared to NRP-5 RG (cerebellar microexplants [1]): had less effect than NRP-5 RP

Molecule: REAAADAPGRAGG-NH2 [SEQ ID NO:44, NRP-5 RG analogue]
- concentration of maximal neuroprotective effect (cerebellar microexplants [1]): about 1 pM
- neuroprotective activity compared to NRP-5 RG (cerebellar microexplants [1]): did not significantly change in the activity profile

Molecule: SEPEARRAQGGQIPSERVLSD-NH2 [NRP-9 segment SD, 21-mer of rat NRP-9]
- concentration range of maximal neuronal survival activity (cerebellar microexplants [1]; 0.5 mM 3-NP/glutamate, 48 hrs): 0.1 to 10 pM
- cells attracted compared to control condition (mouse neural stem cells; 4 nM): Nearly four times

Molecule: COc1cccc(-c2cc(=O)c3ccccc3o2)c1N [PD98509, reference compound]
- effect of inhibitor alone under vehicle and injury conditions (cerebellar microexplants [1]): only modest toxicity
- effect of inhibitor / neutralizing antibody on NRP neuroprotective activity (cerebellar microexplants [1]; with NRP-9 SD, antibody 1 μg/ml 72 hours, wortmannin 100 nM): abolished the neuroprotective activity of NRP; also recorded: completely blocked neuroprotective activity
- effect of inhibitor on NRP-induced increase in migrating NSC (mouse neural stem cells; NRP-9 SD (4 nM), 15 μM PD98509): almost completely blocked; also recorded: inhibited

Molecule: REGRRDAAAAAGG-NH2 [SEQ ID NO:47, NRP-5 RG analogue, PGR-domain substituted]
- neuroprotective activity compared to NRP-5 RG (cerebellar microexplants [1]): some neuroprotective effect at certain concentrations
- concentrations with some neuroprotective effect (cerebellar microexplants [1]; units in value): 0.1 pM, 10 pM and 100 nM

B1: NRP-9: rat ortholog of mouse NRP-7 (protein)
chain: MLKLNEPKPGVVTSEELTGSGIWSSASGPNCSQHRDGEDGGCGRFINLAGNRTQRGCFPEAFPLLQAEPAEYGGPRSGHRLLRGSRGSEPEARRAQGGQIPSERVLSD
modifications: RAT
- proliferation rate during differentiation of NSC (neural stem cells): an increase in the proliferation rate
